In patent US20160238590A1, “COMPOSITIONS AND METHODS RELATED TO OAT SENSITIVITY” (IMMUSANT, INC., priority 2013, published 2016):
Where no end group is shown, it is not given here. [ ]: non-standard residue; d: D form. pGlu = O=C1CC[C@@H](C(=O)O)N1

Legend:
Format in all cases: cell-based, human
Patient 14 TCC-01 = assay: IFN-γ ELISpot with T cell clone; conditions: TCC Patient 14 TCC-01 (Table 5); mean no antigen 11.3, high background, SFU >25 considered as positive responses
Procedure: (§1) Peripheral blood mononuclear cells (PBMC) were isolated from heparinized whole blood using Ficoll-Paque™ Plus density-gradient centrifugation (GE Healthcare). IFN-γ ELISpot (Mabtech) was set up as previously described^8.
(§2) Isolation of TCC from CD patients was carried out as previously described^8. Briefly, CFSE-labeled PBMC were incubated with antigen for 7 days in IMDM supplemented with 5% heat-inactivated pooled human serum (PHS), 2 mM GlutaMAX™, 100 μM MEM non-essential amino acids (both from Gibco, Invitrogen), and 50 μM 2-mercaptoethanol (Sigma). Proliferated cells were single-cell sorted into 96-well plates containing IL-2, IL-4, anti-CD3 mAb, irradiated feeder cells (allogeneic PBMC and JY-EBV). TCC were expanded and maintained in IL-2 and IL-4 and tested for specificity by ELISpot with irradiated HLA-matched PBMC as antigen-presenting cells. Expanded clones were tested for HLA-DQ restriction, TCR Vbeta usage, and with lysine scans to work out minimal epitopes. See Table 1 below for TCC and epitope information.

Patient 2 TCC-01 = assay: IFN-γ ELISpot with T cell clone; conditions: TCC Patient 2 TCC-01 (Table 5); mean no antigen 1.1
Procedure: as §1, §2

Patient 6 TCC-01 = assay: IFN-γ ELISpot with T cell clone; conditions: TCC Patient 6 TCC-01 (Table 5); mean no antigen 2
Procedure: as §1, §2

PBMC [1] = assay: IFN-γ ELISpot on PBMC of CD patients on day 6 after 3-day oats challenge; conditions: after 3-day oats challenge
Description: (§3) Australian Caucasian HLA-DQ2.5^+ and/or HLA-DQ8^+ CD subjects were recruited by advertisement in the Coeliac Society of Victoria newsletter and all had biopsy-proven CD conforming to ESPGHAN criteria. Patients had been on strict gluten free diet for at least 4 weeks prior to commencing grain challenge. Patients underwent 3-day grain challenge with oats, barley, or combined wheat, barley, and rye muffins, and 6 days after commencement, blood was collected. Day 0 responses were not observed in the selection of patients tested, as described previously^8.
(§4) Oats challenge consisted of 100 g dry weight daily of one of three commercial brands of oats: one not tested for wheat contamination (Uncle Toby's; Oats #1), and two shown by R5 ELISA to contain less than 20 ppm wheat gluten (Tilquhilie Pudding; Oats #2 and Freedom Food; Oats #3). Barley challenge consisted of pearl barley (Ward McKenzie) cooked into a risotto (150 g dry weight daily) and the wheat challenge consisted of four 50 g slices of wheat bread daily (Baker's Delight white loaf cut to toasting thickness). The combined wheat, barley, and rye challenge consisted of muffins baked with wheat flour (White Wings), barley flour (Four Leaf Milling), and rye flour (Four Leaf Milling; 22-25 g dry weight each daily). A symptom diary based on a […] Likert scale was completed by participants daily from baseline until day 6.
(§5) Two avenin peptide libraries were utilized for epitope screening. These were designed using avenin sequences from GenBank and a customized algorithm, as previously described^9. The initial library consisted of 199 screening-grade 20 mers including all possible 12 mers (Mimotopes). This library was screened with and without tTG pre-treatment. The second library consisted of additional avenin sequences that were synthesized with glutamate substitution at sites predicted to be deamidated by published algorithms^10, 11 removing the requirement for tTG treatment. This library contained 369 screening-grade 20 mers, including all possible 12 mers (Pepscan). The second round avenin library contained wild-type and deamidated versions of the most immunogenic sequences (25 high quality 16 mers from Mimotopes). High quality peptides containing previously described immunogenic sequences from wheat, barley, and rye were used to test for cross-reactivity^8 (Pepscan). High quality hordein and avenin peptides for TCC testing and biochemical studies were ordered from Pepscan, Mimotopes, or GL Biochem.
as §1

PBMC [2] = assay: IFN-γ ELISpot on PBMC of CD patients after 3-day barley challenge; conditions: after barley challenge
Description: as §3, §4, §5, §1

For “PEQPFPEQPQPYPQQP [barley peptide, AFM77740.1 (25-40) [Q26 to E, Q31 to E]]”, the “IFN-γ ELISpot response (raw SFU)” value (Patient 14 TCC-01) was 66 SFU, the “IFN-γ ELISpot response (raw SFU)” value (Patient 2 TCC-01) was 202 SFU and the “IFN-γ ELISpot response (raw SFU)” value (Patient 6 TCC-01) was 73 SFU.
With “pEQPFPQPEQPQLPF ([pGlu]QPFPQPEQPQLPF) [wheat peptide, AAK84772.1 (126-139) [Q126 to pyroglutamate, Q133 to E], reference compound]” the “IFN-γ ELISpot response (raw SFU)” value (Patient 14 TCC-01) was 14 SFU, the “IFN-γ ELISpot response (raw SFU)” value (Patient 2 TCC-01) was 4 SFU and the “IFN-γ ELISpot response (raw SFU)” value (Patient 6 TCC-01) was 23 SFU.
In the case of “pEQPQPYPEQPQPYP ([pGlu]QPQPYPEQPQPYP) [barley peptide, AFM77740.1 (31-44) [Q31 to pyroglutamate, Q38 to E]]”, the “IFN-γ ELISpot response (raw SFU)” value (Patient 14 TCC-01) is reported as 27 SFU, the “IFN-γ ELISpot response (raw SFU)” value (Patient 2 TCC-01) is reported as 316 SFU and the “IFN-γ ELISpot response (raw SFU)” value (Patient 6 TCC-01) is reported as 52 SFU.
In the case of EQYQPYPEQQPFMQPL [avenin peptide], the “IFN-γ ELISpot response (raw SFU)” value (PBMC [1]; patient P1, peptide 1 μg/ml) is reported as 0 SFU, the “IFN-γ ELISpot response (raw SFU)” value (PBMC [1]; patient P1, peptide 10 μg/ml) is reported as 0 SFU and the “IFN-γ ELISpot response (raw SFU)” value (PBMC [1]; patient P1, peptide 100 μg/ml) is reported as 4 SFU. The “IFN-γ ELISpot response (raw SFU)” value (PBMC [1]; patient P2, peptide 1 μg/ml) was 0 SFU, the “IFN-γ ELISpot response (raw SFU)” value (PBMC [1]; patient P2, peptide 10 μg/ml) was 3 SFU and the “IFN-γ ELISpot response (raw SFU)” value (PBMC [1]; patient P2, peptide 100 μg/ml) was 49 SFU. For the same substance, the “significant SFU as a percentage of maximal peptide SFU” value (shortened to “significant SFU as a percentage”) (PBMC [1]; patient P2, peptide 100 μg/ml) was “*** (***: >70%)”, the “IFN-γ ELISpot response (raw SFU)” value (PBMC [1]; patient P3, peptide 1 μg/ml) was 3 SFU and the “IFN-γ ELISpot response (raw SFU)” value (PBMC [1]; patient P3, peptide 10 μg/ml) was 18 SFU. For the same substance, the “significant SFU as a percentage” value (PBMC [1]; patient P3, peptide 10 μg/ml) was “* (*: 20-40%)”, the “IFN-γ ELISpot response (raw SFU)” value (PBMC [1]; patient P3, peptide 100 μg/ml) was 5 SFU and the “IFN-γ ELISpot response (raw SFU)” value (PBMC [1]; patient P11, peptide 1 μg/ml) was 3 SFU. For the same substance, the “IFN-γ ELISpot response (raw SFU)” value (PBMC [1]; patient P11, peptide 10 μg/ml) was 0 SFU, the “IFN-γ ELISpot response (raw SFU)” value (PBMC [1]; patient P11, peptide 100 μg/ml) was 54 SFU and the “significant SFU as a percentage” value (PBMC [1]; patient P11, peptide 100 μg/ml) was “*** (***: >70%)”. For the same substance, the “IFN-γ ELISpot response (raw SFU)” value (PBMC [1]; patient P12, peptide 1 μg/ml) was 0 SFU, the “IFN-γ ELISpot response (raw SFU)” value (PBMC [1]; patient P12, peptide 10 μg/ml) was 2 SFU and the “IFN-γ ELISpot response (raw SFU)” value (PBMC [1]; patient P12, peptide 100 μg/ml) was 31 SFU. For the same substance, the “significant SFU as a percentage” value (PBMC [1]; patient P12, peptide 100 μg/ml) was “** (**: 40-70%)”, the “IFN-γ ELISpot response (raw SFU)” value (PBMC [1]; patient P13, peptide 50 μg/ml) was 0 SFU and the “IFN-γ ELISpot response (raw SFU)” value (PBMC [2]; Patient 1, peptide 50 μg/ml) was 19 SFU. The “significant SFU as a percentage” value (PBMC [2]; Patient 1, peptide 50 μg/ml) was “(^: 5-10%)”, the “IFN-γ ELISpot response (raw SFU)” value (PBMC [2]; Patient 2, peptide 50 μg/ml) was 25 SFU and the “significant SFU as a percentage” value (PBMC [2]; Patient 2, peptide 50 μg/ml) was “^^ (^^: 10-20%)”. For the same substance, the “IFN-γ ELISpot response (raw SFU)” value (PBMC [2]; Patient 3, peptide 50 μg/ml) was 33 SFU and the “significant SFU as a percentage” value (PBMC [2]; Patient 3, peptide 50 μg/ml) was “* (*: 20-40%)”.
In the case of “PQPFPEQPIPEQPQPY [barley peptide, 1103203A (27-42) [Q32 to E, Q37 to E]]”, the “IFN-γ ELISpot response (raw SFU)” value (Patient 14 TCC-01) is reported as 38 SFU, the “IFN-γ ELISpot response (raw SFU)” value (Patient 2 TCC-01) is reported as 1 SFU and the “IFN-γ ELISpot response (raw SFU)” value (Patient 6 TCC-01) is reported as 60 SFU.
“pEPEQIIPEQPEQPS ([pGlu]PEQIIPEQPEQPS) [rye peptide, AAB58403.1 (195-208) [Q195 to pyroglutamate, Q202 to E, Q205 to E], reference compound]” was tested, and the “IFN-γ ELISpot response (raw SFU)” value (Patient 14 TCC-01) was 59 SFU, the “IFN-γ ELISpot response (raw SFU)” value (Patient 2 TCC-01) was 2 SFU and the “IFN-γ ELISpot response (raw SFU)” value (Patient 6 TCC-01) was 3 SFU.
For “pEQPFTQPEQPTPIQ ([pGlu]QPFTQPEQPTPIQ) [wheat peptide, AAG17702.1 (78-91) [Q78 to pyroglutamate, Q85 to E], reference compound]”, the “IFN-γ ELISpot response (raw SFU)” value (Patient 14 TCC-01) was 13 SFU, the “IFN-γ ELISpot response (raw SFU)” value (Patient 2 TCC-01) was 0 SFU and the “IFN-γ ELISpot response (raw SFU)” value (Patient 6 TCC-01) was 65 SFU.
For “pEPEQTFPEQPQLPF ([pGlu]PEQTFPEQPQLPF) [wheat peptide, AAK84780.1 (5-18) [Q5 to pyroglutamate, Q7 to E, Q12 to E], reference compound]”, the “IFN-γ ELISpot response (raw SFU)” value (Patient 14 TCC-01) was 33 SFU, the “IFN-γ ELISpot response (raw SFU)” value (Patient 2 TCC-01) was 2 SFU and the “IFN-γ ELISpot response (raw SFU)” value (Patient 6 TCC-01) was 11 SFU.
With “pEPFPEQPEQPFPQP ([pGlu]PFPEQPEQPFPQP) [wheat peptide, ACO40292.1 (81-94) [Q81 to pyroglutamate, Q85 to E, Q88 to E], reference compound]” the “IFN-γ ELISpot response (raw SFU)” value (Patient 14 TCC-01) was 14 SFU, the “IFN-γ ELISpot response (raw SFU)” value (Patient 2 TCC-01) was 119 SFU and the “IFN-γ ELISpot response (raw SFU)” value (Patient 6 TCC-01) was 5 SFU.
